≈ marks a conversion by molar mass, not a printed value. Where “and” joins values, the source holds several entries; their conditions need not be identical. Equal values may be shown once.
Experiments:
Adenosine receptor A3 [1] = biological target: T1, Adenosine receptor A3 (Rattus norvegicus, UniProt P28647); test: Inhibition of rat recombinant adenosine A3 receptor
T1 sequence (P28647 whole entry): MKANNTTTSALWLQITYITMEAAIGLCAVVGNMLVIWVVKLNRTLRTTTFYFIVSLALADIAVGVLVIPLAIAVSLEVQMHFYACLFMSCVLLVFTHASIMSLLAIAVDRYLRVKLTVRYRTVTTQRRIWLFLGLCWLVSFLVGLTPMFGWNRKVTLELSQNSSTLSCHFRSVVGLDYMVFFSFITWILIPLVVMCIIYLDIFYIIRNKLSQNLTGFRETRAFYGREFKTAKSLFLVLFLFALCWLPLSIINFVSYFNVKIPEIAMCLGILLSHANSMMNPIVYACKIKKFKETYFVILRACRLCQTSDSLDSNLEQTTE

Adenosine receptor A2b = biological target: T2, Adenosine receptor A2b (Homo sapiens, UniProt P29275)
T2 sequence (P29275 whole entry): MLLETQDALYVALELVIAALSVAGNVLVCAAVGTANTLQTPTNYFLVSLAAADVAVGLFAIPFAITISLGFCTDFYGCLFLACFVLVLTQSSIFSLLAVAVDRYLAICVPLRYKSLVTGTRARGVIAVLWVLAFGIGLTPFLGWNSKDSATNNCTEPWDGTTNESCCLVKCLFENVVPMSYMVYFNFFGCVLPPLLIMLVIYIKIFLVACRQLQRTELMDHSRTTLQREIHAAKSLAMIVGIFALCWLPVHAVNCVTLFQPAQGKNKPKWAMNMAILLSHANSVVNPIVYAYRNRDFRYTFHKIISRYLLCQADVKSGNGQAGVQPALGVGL

Adenosine receptor A2a [2] = biological target: T3, Adenosine receptor A2a (Rattus norvegicus, UniProt P30543)
[3] = Plasma clearance in rat; type: ADME, organism-based
[4] = Half life in rat; type: ADME, organism-based; conditions: in vivo
[5] = Half life in dog; type: ADME, organism-based, Canis lupus familiaris; conditions: in vivo
[6] = Plasma clearance in dog; type: ADME, organism-based, Canis lupus familiaris
[7] = Volume of distribution in rat; type: ADME, organism-based; conditions: in vivo
[8] = Volume of distribution in dog; type: ADME, organism-based, Canis lupus familiaris; conditions: in vivo
Adenosine receptor A1 = biological target: T4, Adenosine receptor A1 (Homo sapiens, UniProt P30542)
T4 sequence (P30542 whole entry): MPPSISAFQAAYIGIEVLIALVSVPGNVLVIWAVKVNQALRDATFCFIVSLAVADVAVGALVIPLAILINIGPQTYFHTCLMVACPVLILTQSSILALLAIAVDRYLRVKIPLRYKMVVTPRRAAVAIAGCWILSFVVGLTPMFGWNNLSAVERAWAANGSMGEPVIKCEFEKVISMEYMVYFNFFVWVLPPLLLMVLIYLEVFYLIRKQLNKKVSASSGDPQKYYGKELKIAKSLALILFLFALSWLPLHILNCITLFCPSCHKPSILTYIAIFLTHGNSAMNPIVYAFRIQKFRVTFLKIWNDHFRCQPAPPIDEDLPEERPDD

Adenosine receptor A2a [9] = biological target: T3, Adenosine receptor A2a; test: Binding affinity to adenosine receptor A2a in rat striatum; type: tissue-based
Adenosine receptor A3 [10] = biological target: T5, Adenosine receptor A3 (Homo sapiens, UniProt P0DMS8)
T5 sequence (P0DMS8 whole entry): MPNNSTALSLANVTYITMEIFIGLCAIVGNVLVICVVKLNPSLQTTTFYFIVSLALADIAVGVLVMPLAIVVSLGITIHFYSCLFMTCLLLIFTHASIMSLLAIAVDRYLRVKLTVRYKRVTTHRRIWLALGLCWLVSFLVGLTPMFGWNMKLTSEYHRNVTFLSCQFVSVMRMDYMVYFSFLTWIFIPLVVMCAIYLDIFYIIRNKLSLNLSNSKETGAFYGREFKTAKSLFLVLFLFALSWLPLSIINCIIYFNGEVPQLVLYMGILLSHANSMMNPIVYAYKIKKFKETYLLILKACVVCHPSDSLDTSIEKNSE

Adenosine receptor A2a [11] = biological target: T6, Adenosine receptor A2a (Homo sapiens, UniProt P29274)
Rattus norvegicus [12] = organism: Rattus norvegicus; test: Systemic vasodilation in rat; type: functional
Homo sapiens = organism: Homo sapiens; test: Selectivity ratio of Ki for human recombinant adenosine A1 receptor to Ki for human recombinant adenosine receptor A2a
[13] = Solubility of the compound at pH 7.4; type: physicochemical; conditions: buffer
Mus musculus = test: Anticataleptic activity in mouse assessed as inhibition of haloperidol-induced catalepsy at 10 mg/kg, po; type: functional
Plasma = test: Drug level in rat plasma measured per ml at 10 mg/kg, po; type: ADME, organism-based; parameters: dose 10 mg/kg, route oral; conditions: in vivo
Brain = test: Drug level in rat brain measured per gram at 10 mg/kg, po; type: ADME, organism-based; parameters: dose 10 mg/kg, route oral; conditions: in vivo
Adenosine receptor A2a [14] = biological target: T6, Adenosine receptor A2a; remark: listed apart in the source
[15] = AUC in rat at 3 mg/kg, po; type: ADME, organism-based; parameters: dose 3 mg/kg, route oral; conditions: plasma
Rattus norvegicus [16] = test: Anticataleptic activity in rat assessed as inhibition at 1 mg/kg, po after 1 hr; type: functional
Rattus norvegicus [17] = test: Anticataleptic activity in rat assessed as inhibition at 1 mg/kg, po after 4 hrs; type: functional
[18] = Ratio of drug level from brain to plasma in rat; type: ADME; conditions: read-out: BPR
Rattus norvegicus [19] = organism: Rattus norvegicus; test: Anticataleptic activity in rat assessed as minimum efficacious dose after 1 hr; type: functional; conditions: read-out: MED
Rattus norvegicus [20] = organism: Rattus norvegicus; test: Anticataleptic activity in rat assessed as minimum efficacious dose after 4 hrs; type: functional; conditions: read-out: MED
Rattus norvegicus [21] = organism: Rattus norvegicus; test: Selectivity ratio of Ki for rat striatal adenosine A1 receptor to Ki for rat recombinant adenosine receptor A2a
Rattus norvegicus [22] = test: Anticataleptic activity in rat assessed as inhibition of haloperidol-induced catalepsy at 3 mg/kg, po after 30 mins; type: functional; conditions: 0.5 h
[23] = Ratio of drug level from brain to plasma in iv dosed rat after 0.5 hrs; type: ADME, organism-based; conditions: read-out: BPR
Rattus norvegicus [24] = organism: Rattus norvegicus; test: Anticataleptic activity in rat assessed as inhibition of haloperidol-induced catalepsy after 1 hr; type: functional
Rattus norvegicus [25] = organism: Rattus norvegicus; test: Anticataleptic activity in rat assessed as inhibition of haloperidol-induced catalepsy after 2 hrs; type: functional

T6 sequence (P29274 whole entry): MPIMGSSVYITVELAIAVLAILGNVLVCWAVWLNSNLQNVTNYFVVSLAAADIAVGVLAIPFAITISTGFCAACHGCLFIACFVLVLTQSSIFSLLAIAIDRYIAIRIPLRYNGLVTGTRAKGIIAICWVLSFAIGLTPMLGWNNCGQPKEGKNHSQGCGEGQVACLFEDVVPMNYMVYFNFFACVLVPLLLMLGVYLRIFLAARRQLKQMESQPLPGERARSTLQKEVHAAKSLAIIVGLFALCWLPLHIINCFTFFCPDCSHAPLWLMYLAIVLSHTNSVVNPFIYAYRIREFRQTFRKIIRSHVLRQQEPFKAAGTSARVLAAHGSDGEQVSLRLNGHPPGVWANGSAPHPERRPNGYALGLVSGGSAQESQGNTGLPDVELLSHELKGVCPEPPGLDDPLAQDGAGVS
T3 sequence (P30543 whole entry): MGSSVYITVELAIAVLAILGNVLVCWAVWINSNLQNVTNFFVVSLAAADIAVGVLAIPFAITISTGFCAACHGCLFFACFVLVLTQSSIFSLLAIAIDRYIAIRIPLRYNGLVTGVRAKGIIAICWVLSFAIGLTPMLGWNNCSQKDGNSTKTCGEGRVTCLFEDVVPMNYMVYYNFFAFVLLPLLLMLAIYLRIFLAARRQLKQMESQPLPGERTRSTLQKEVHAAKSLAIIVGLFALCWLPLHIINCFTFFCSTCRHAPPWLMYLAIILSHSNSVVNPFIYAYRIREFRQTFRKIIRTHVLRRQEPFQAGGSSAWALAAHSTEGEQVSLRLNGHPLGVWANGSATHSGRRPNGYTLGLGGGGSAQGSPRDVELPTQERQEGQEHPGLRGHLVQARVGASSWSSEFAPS

## C#CCn1c(=O)c2c(nc(/C=C/c3cccc(OC)c3)n2C)n(CCCO)c1=O
Adenosine receptor A3 [1]
  Ki: > 10000 nM
Adenosine receptor A2b
  Ki: 2900 nM
Adenosine receptor A2a [2]
  Ki: 5 nM

## COc1ccc(N2CCOCC2)c2sc(NC(=O)N3CCC(C)(O)CC3)nc12 [TOZADENANT]
[3]
  clearance: 11 mL/min/kg
[4]
  half-life: 4 h
[5]
  half-life: 2.2 h
[6]
  clearance: 8 mL/min/kg
[7]
  Vd: 1.4 L/kg
[8]
  Vd: 1.2 L/kg
Adenosine receptor A1
  Ki: 1350 nM

## Nc1nc2c(cnn2CCc2ccccc2)c2nc(-c3ccco3)nn12 [SCH-58261]
Adenosine receptor A2a [9]
  Kd: 0.7 nM
Adenosine receptor A3 [10]
  Ki: 1200 nM

## CCn1nnc([C@H]2O[C@@H](n3cnc4c(N)nc(N[C@H](CO)Cc5ccccc5)nc43)[C@H](O)[C@@H]2O)n1 [GW-328267]
Adenosine receptor A2a [11]
  EC50: 9 nM

## Nc1nc(N/N=C/C2CCCCC2)nc2c1ncn2[C@@H]1O[C@H](CO)[C@@H](O)[C@H]1O [BINODENOSON]
Rattus norvegicus [12]
  ED50: 0.31 mg

## COC1CCN(c2cccc(-c3cc(NC(C)=O)nc(-n4nc(C)cc4C)n3)n2)CC1
Homo sapiens
  Ratio Ki: 193
[13]
  solubility: 30 µg/mL (≈ 71.2 µM)
Mus musculus
  inhibition in vivo at 10 mg/kg: 88%
Plasma
  Cp: 150 ng/mL
Brain
  Drug uptake: 560 ng/g
Adenosine receptor A2a [14]
  Ki: 0.4 nM
Adenosine receptor A1
  Ki: 77.2 nM

## COCCOc1ccc(N2CCN(CCn3ncc4c3nc(N)n3nc(-c5ccco5)nc43)CC2)cc1 [PRELADENANT]
Homo sapiens
  Ratio Ki: > 1660 and 1340
[15]
  AUC: 1560 ng·h/mL
Rattus norvegicus [16]; 1 mg/kg
  inhibition (INH): 77%
Rattus norvegicus [16]; Rattus norvegicus, po, 1 h
  inhibition in vivo at 1 mg/kg: 75%
Rattus norvegicus [17]; 1 mg/kg
  inhibition (INH): 70%
Rattus norvegicus [17]; Rattus norvegicus, po, 4 h
  inhibition in vivo at 1 mg/kg: 80%
[18]
  Kp: 1
Rattus norvegicus [19]
  minimal effective dose: 0.3 mg/kg
Rattus norvegicus [20]
  minimal effective dose: 0.3 mg/kg
Adenosine receptor A2b
  Ki: > 1700 nM
Adenosine receptor A2a [14]
  Ki: 0.6 nM
Adenosine receptor A1
  Ki: > 996 nM
Adenosine receptor A3 [10]
  Ki: > 1000 nM

## Nc1nc(N2CCN3CCC[C@@H]3C2)cc2nc(-c3ccco3)nn12
Rattus norvegicus [21]
  Ratio Ki: 17
Rattus norvegicus [22]
  inhibition in vivo at 3 mg/kg: > 50%

## Cc1cc(-c2nnc(N)nc2-c2ccccc2)cc(C(F)(F)F)n1
[23]
  Kp at 0.5 h: 3.2
Rattus norvegicus [24]
  ED50: 0.2 mg/kg
Rattus norvegicus [25]
  ED50: 0.2 mg/kg
Adenosine receptor A1
  Ki: 31 nM

— ChEMBL document CHEMBL3259781 (J Med Chem, 2014)
